By inhibition is commonly meant the change of the read-out against control, counted positive when it falls. The IC50 is the concentration that gives 50% inhibition.

The test system of experiment [1] is proteolytic cleavage of PARP (poly ADP-ribose polymerase) in Hela cells. Description: Inhibition of staurosporine-induced PARP cleavage in live Hela cells. Type of experiment: cell-based. Here is the method:
To test the efficacy of caspase-3 inhibitors at the cellular level, the ability of selected compounds to inhibit the proteolytic cleavage of PARP (poly ADP-ribose polymerase) was evaluated in live Hela cells.
Briefly, in this assay Hela cells are seeded in 96 well plates and incubated for 4 hours with staurosporine, a well characterized inducer of apoptosis, alone or together with different concentrations of compound (50, 25, 10 and 3 uM). After formaldehyde-based fixation, the cells are stained with a fluorescein-labeled anti-cleaved PARP antibody (Cell signaling, Cat#: 9547) and counterstained with Hoechst33342 (Invitrogen, Cat#: H3570) to mark all nuclei. Fluorescence images are taken on a Cellomics™ microscope system (Thermo Scientific, Pittsburgh, USA) with the Hoechst stain in the blue channel and the cleaved PARP antibody stain in the green channel. The percentage of cleaved PARP positive cells is determined by calculating the ratio between nuclei with a cleaved PARP antibody staining above a certain threshold and all (Hoechst positive) nuclei. The efficacy of caspase-3 inhibition is determined by calculating the ratio between cleaved PARP positive cells after staurosporine incubation together with compounds and staurosporine incubation without compounds.

The next experiment deals with Glo3/7. Description: Glo3/7 assay. Type of experiment: biochemical.
The next experiment relates to EAE in C57BL/6 mice. The experiment can be described thus: Chronic EAE mouse model (MOG35-55 immunization), daily clinical score and body weight. It is filed as in vivo. Set-up: key to Delay in onset of the disease / Reduction in severity of the disease / Reduction in body weight loss: +++: high level improvement; ++: moderate improvement; +: small improvement; −: no improvement. A digest of the protocol: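 Female C57BL/6 mice, 7–8 weeks old, were immunized s.c. with 100 μg MOG35-55 in CFA containing M. tuberculosis H37Ra, plus 200 ng pertussis toxin i.p. on days 0 and 2. […], compound in 2.5% DMSO/PBS was given i.p.; vehicle for placebo. Clinical score (0–5) and body weight were recorded daily.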

The mark [2] stands for this setting: FIG. 1, i.p. from day 10 to 16 post immunization, versus placebo.
Where [3] appears, read: FIG. 3, i.p. from day 14 to 19 post immunization, versus placebo.
[4] abbreviates: FIG. 4, administration for 15 days from day 12 post-immunization, versus placebo.
Where [5] appears, read: average overall effects on the EAE model, i.p.

Take `CC(C)[C@H](NC(=O)[C@@H](NC(=O)[C@H](CC(=O)O)NC(=O)OCc1ccccc1)c1ccccc1)C(=O)N[C@H](/C=C/S(C)(=O)=O)CC(=O)O` [Compound 53, Z-Asp-Phg-Val-Aspmethyl vinyl sulfone]: the “effectivity in inhibiting PARP cleavage” value in experiment [1] (Hela cells, staurosporine) is “highly effective relative to DEVD-fmk”. The inhibition at 50 µM in experiment [1] (Homo sapiens, HeLa, 4 h, read-out: % inhibition of PARP cleavage at 50 uM compound, Hela cells, staurosporine 4 hours, 50 uM compound) was greater than 50%. In the experiment on Glo3/7, this compound had an IC50 of 0.1 µM. In the experiment with EAE in C57BL/6 mice (setting [2]), the Cumulative clinical score result was “significantly lower compared to placebo”, the Disease onset entry is reported as “delayed”, the “Loss of body weight” value is on record as “less than the placebo” and the “clinical severity of the disease” value is “reduced significantly”. The maximal clinical score result in the experiment on EAE in C57BL/6 mice (setting [2]) is reported as “significantly lower compared to placebo”. Besides, in the experiment with EAE in C57BL/6 mice (FIG. 3, i.p. from day 14 to 19 post immunization, twice the concentration of compound 53), the “delay of the clinical score (symptoms of EAE)” value is “delayed significantly the clinical score”. Also, in the experiment with EAE in C57BL/6 mice (setting [3]), the “Loss of body weight” value is recorded as “less than in the placebo group” and the “effects on the clinical course of EAE” value is listed as “ameliorating effects”. In addition, in the experiment with EAE in C57BL/6 mice (setting [4]), the “Loss of body weight” value is given as “less than placebo”; the “severity of the disease” value was “began to reverse the effects of the disease and reduced the severity of the disease continuously”. In the experiment on EAE in C57BL/6 mice (setting [5]), the “Delay in onset of the disease” value is on record as “+++”, the “Reduction in body weight loss” value is listed as “+++” and the “Reduction in severity of the disease” value is on record as “+++”.

The record behind these values is patent publication US9045524B2, “Selective caspase inhibitors and uses thereof” (NOVAGENESIS FOUNDATION, priority 2009, dated 2015).
